Patent publication US20030216569A1, “Method of making HIV protease inhibitors” (priority 1993, published 2003)
Where a name gives a salt, the structure may show the parent alone. Read-outs that look alike come from different tables or passages of the source.

What was measured:
HIV-1 protease = HIV-1 protease (Human immunodeficiency virus type 1 group M subtype B, UniProt P04585); experiment: Fluorescence HIV-1 Protease Inhibitor Assay (Pandex); type: biochemical; parameters: made in house; host or cells: E. coli K12 L507/pHP10D (NRRL B-18560)
Method: A. Preparation of Protease and Gag Fractions
Lyophils of E. coli K12 L507/pHP10D were obtained from the Northern Regional Research Laboratory, Peoria, Ill. 61604, under the accession number NRRL B-18560 (deposited Nov. 14, 1989). The lyophils were decanted into tubes containing 10 ml LB medium (10 g Bacto-tryptone, 5 g Bacto-yeast extract, and 10 g aqueous sodium chloride per liter; the pH was adjusted to 7.5 and incubated at 32° C. overnight).
A small portion of the overnight culture was placed on LB-agar (LB medium with 15 g/L Bacto-agar) plates containing 12.5 micrograms/ml tetracycline in a manner so as to obtain a single colony isolate of E. coli K12 L507/pHP10D. The single colony obtained was inoculated into 10 ml of LB medium containing 12.5 micrograms/ml tetracycline and incubated overnight at 32° C. with vigorous shaking. The 10 ml overnight culture was inoculated into LB medium containing 12.5 micrograms/ml tetracycline and incubated at 32° C. with vigorous shaking until the culture reached mid-log phase. […]
3. Preparation of Protease Fraction
A culture of E. coli K12 L507/pHP10D was grown to mid-log phase at 32° C. in LB media containing 12.5 micrograms/ml tetracycline. The cultivation temperature was quickly elevated to 40° C. to induce gene expression, and the cells were allowed to grow for 2.5 hours at this temperature before the culture was quickly chilled on ice. The cells were centrifuged and the cell pellet was resuspended in 20 ml of 50 mmol MES buffer (pH 6.0) containing 1 mmol EDTA, 1 mmol DTT, 1 mmol PMSF and 10% glycerol (“Buffer A”). Cells were lysed by sonication using a Fischer Model 300 Dismembrator and a microtip probe. Following centrifugation at 27,000×g, the supernatant was diluted to a total volume of 60 ml with Buffer A and loaded onto a 2.0×19 cm QAE-Sepharose column (1 ml/min, 4° C.), that had been equilibrated in Buffer A. The column was washed isocratically for 180 min and then eluted with a gradient eluent of […] aqueous sodium chloride in Buffer A over 120 min. Enzymatic activity was measured by HPLC using the synthetic peptide Ser-Gln-Asn-Tyr-Pro-Ile-Val as described in Margolin et al., Biochem. Biophys. Res. Commun., 167, 554-560 (1990); the production of the p1 peptide (Ser-Gln-Asn-Tyr) was measured.
The active fractions were combined, adjusted to […] 1.2M in ammonium sulfate, and applied to a 2.0×18 cm hexyl agarose column that had been equilibrated in Buffer A containing 1.2M ammonium sulfate. The sample was loaded at a flow rate of 1 ml/min at 4° C., washed with the equilibration buffer for 240 min (1 ml/min) and then eluted using a reverse linear gradient of 1.2-0M ammonium sulfate in Buffer A for 120 min at the same flow rate. The column was then washed isocratically in Buffer A for 120 min.
The active fractions were combined, concentrated to 10 ml using an Amicon stirred cell with a YM-10 membrane and then applied to a MonoS cation exchange column (1.0×10 cm) that had been equilibrated in Buffer A. The sample was loaded at a flow rate of 1 ml/min at 25° C. After washing isocratically for 30 min, the protease was eluted using a linear gradient of 0-0.45M aqueous sodium chloride in Buffer A over 40 min. The column was washed isocratically in Buffer A containing 0.45M aqueous sodium chloride for 30 minutes.
The active fractions were combined and concentrated to 200 microliters using an Amicon stirred cell and a YM-10 membrane and then the protease was applied to a Superose 6 size exclusion column equilibrated in Buffer A containing 0.1M aqueous sodium chloride.

[1] = test system: Viral SN123 infected CEM cells
Method: Purpose: To determine IC50 CC50 for compounds:
Media A [1% DMSO] (100 microliters DMSO+9.9 ml media A)
CEM cells @ [1×10^4] cells/ml (4 plate=40 ml) (6 plate=60 ml)
(need 70 microliters of each)
A-D at [10 mM] in 100% DMSO
4 or 6 u-bottom 96-well plates
4 flat bottom 96-well plates for dilutions
8-10 boxes of sterile costar tips
Approximately 10 reagent trays
1000 cells/well=1×10^4 cells/ml=1000 cells/100 microliters 200 microliters=total volume in a well
Cell Preparation and Plating of Cells, Media A and Media A (1% DMSO)
a. Number a 96-well tissue culture plate for each compound tested, one for a control plate, and one for the control compound.
b. Count cells on hemacytometer and resuspend them in 40 ml or 80 ml of Media A at a concentration of [1×10^4]0 cells/ml.
Counting Cells on a Hemacytomer:
Label two 1.8 ml nuc tubes 1 and 2.
Put 0.5 ml of well mixed CEM cells (in growth phase) in tube 1.
Put 50 micoliters PBS and 40 microliters of trypan blue into tube 2.
Mix up the cells in tube 1 then remove 10 microliters of cells and put them into tube 2.
Mix well in tube 2, then remove 10 microliters of the stained cells and put them on the hemacytometer.
Count the number of cells in the center square of the hemacytometer with the microscope set on 10×.
The concentration of the stock CEM's in cells/ml is as follows:
Cells counted×1×10^5=Concentration of CEM's in [cells/ml].
c. Add 200 microliters Media A to: A1 of places 2-6. These are Blanks. A4-H4 of plate 1. These are Blanks.
d. Add 5 microlicers Media A to all wells of Rows A-D of plates 2-6 except A1 (the top half of each plate).
e. Add 50 microliters of Media A to wells A1-D3 of Plate 1 (the top half of the plate).
f. Add 50 microliters Media A[l% DMSO] to all wells of Columns 1-3 of plate 1.
This puts 1000 cells/well.
h. Put plates in an incubator while doing drug dilutions.
Preparation Control and Test Drugs
(1) Put 60 microliters of DMSO into all wells of Columns 2-12, Rows A-E.
(3) Put 70 microliters of A [10 mM] at 100% DMSO into well B1.
(4) Put 70 microliters of B [10 mM] at 100% DMSO into well C1.
(5) Put 70 microliters of C [10 mM] at 100% DMSO into well D1.
(6) Put 70 microliters of D [10 mM] at 100% DMSO into well E1.
Change tips before each dilution.
(1) In rows A-E of another plate make a row for the first 1:10 dilution to correspond to each compound's 100% DMSO row.
A into Row B for the first 1:10 dilution.
B into Row C for the first 1:10 dilution.
C into Row D for the first 1:10 dilution.
D into Row E for the first 1:10 dilution.
(2) Put 180 microliters of media A into all wells of rows A-E corresponding to the 100% DMSO rows. 2.5 ml needed per row.
(3) Remove 20 microliters from all wells of each row of the 100% DMSO rows and transfer it to the corresponding 1:10 row.
(1) Make a plate for every 3 compounds to be tested.
Use 20 ml of media A per plate.
(3) Transfer 25 microliters of each compound from the row in the 1:10 dilution to the corresponding two rows on the 1:100 dilution plate changing tips before each transfer.
Addition of Viral SN123 to Plates
a. Thaw Sn123 in 37° C. water bath for approximately 10 minutes.
b. Dilute Sn123 1:16 by adding 1 ml of Sn123 to 15 ml of media A.
c. Add 50 microliters of Sn123 [1:16] to wells E1-H12 of plates 2-6 and to wells E1-H3 of plate 1.
Addition of Drugs to Plates
a. Add 50 microliters of the control and test drugs from the rows in the 1:100 dilution plates to the appropriate rows in the final plates (changing tips before each transfer). One row in the 1:100 plate will do 4 rows in the final plate. Leave A1 blank.
b. Incubate all plates 7 days at 37° C. 5% CO2.
c. Do Xtt protocol on day 7 as follows:
d. Preparation of Xtt/PMS Solution: (4 plate=20 ml) (6 plate=30 ml)
100 microliters [100 mM] PMS+4.9 ml PBS=PMS at [2 mM]
(2) Heat 500 ml of H2O in microwave for 5 minutes on high.
(3) Put 20 or 30 ml of phenol red RPMI in a 50 ml centrifuge tube.
(4) Put the RPMI in the beaker of hot water.
(5) Add 20 or 30 mg of XTT to the warmed up RPMI.

[2] = normalized to positive control (=1.0), * = a calculated average, read-out: Fluorescence Assay IC50 in ng/mL (converted)
[3] = value as run, 35B value of the same run in footnote or parentheses, read-out: Pandex IC50 ng/ml (converted)
[4] = Human immunodeficiency virus 1, CCRF-CEM, read-out: Whole cell IC50 nM, CEM cells, values in parentheses are 35B in same assay
[5] = Human immunodeficiency virus 1, CCRF-CEM, read-out: Whole cell IC90 nM, CEM cells, values in parentheses are 35B in same assay
[6] = normalized to positive control (=1.0), * = a calculated average

SMILES: Cc1cnccc1C(=O)NC(CSc1ccccc1)C(O)CN1CC2CCCCC2CC1C(=O)NC(C)(C)C (stereo not drawn) [Example 30, [3S-(3R*,4aR*,8aR*,2′S*,3′S*)]-2-[2′-Hydroxy-3′-phenylthiomethyl-4′-aza-5′-oxo-5′-(3″-methyl-pyrid-4″-yl)phentyl] decahydroisoquinoline-3-N-t-butylcarboxamide]
- IC50 (HIV-1 protease; [2]): 7.6 nM
- IC50 (HIV-1 protease; [3]): 9.05 nM
- IC50 [1, 4]: 367 nM
- IC90 [1, 5]: 736 nM

SMILES: Cc1c(O)cccc1C(=O)NC(Cc1ccccc1)C(O)CN1CC2CCCCC2CC1C(=O)NC(C)(C)C (stereo not drawn) [Example 28, [3S-(3R*,4aR*,8aR*,2′S*,3′R*)]-2-[2′-Hydroxy-3′-phenylmethyl-4′-aza-5′-oxo-5′-(2″-methyl-3″-hydroxyphenyl)pentyl] decahydroisoquinoline-3-N-t-butylcarboxamide monomesylplate salt]
- IC50 ([1]; read-out: Whole cell IC50 nM, CEM cells, tested as the mesylate salt): 35.7 nM
- IC90 ([1]; read-out: Whole cell IC90 nM, CEM cells, tested as the mesylate salt): 91.8 nM

SMILES: Cc1c(C(=O)N[C@@H](Cc2ccccc2)[C@H](O)CN2C[C@H]3CCCC[C@H]3C[C@H]2C(=O)NC(C)(C)C)cc[nH]c1=O (relative stereo) [Example 16, [3S-(3R*,4aR*,8aR*,2′S*,3′R*)]-2-[2′-Hydroxy-3′-phenylmethyl-4′-aza-5′-oxo-5′-(2″-oxo-3″-methyl-pyrid-4″-yl)pentyl] decahydroisoquinoline-3-N-t-butylcarboxamide]
- Fluorescence Assay IC50 (HIV-1 protease; [6]): 329 ng/mL
- Pandex IC50 ng/ml (HIV-1 protease; value as run, 35B value of the same run in footnote or parentheses): 125^e ng/ml

SMILES: Cc1c(O)cccc1C(=O)N[C@H](CSc1ccc2ccccc2c1)[C@H](O)Cc1ccc2ccccc2c1C(=O)NC(C)(C)C (relative stereo) [Example 48, [2′R-(2′R*,3′S*)]-N-t-Butyl-2-[2′-hydroxy-3′-naphth-2-ylthiomethyl-4′-aza-5′-oxo-5′-(2″-methyl-3″-hydroxyohenyl)pentyl]-1-naphthylamide]
- Fluorescence Assay IC50 (HIV-1 protease; [6]): 177 ng/mL

SMILES: CC(=O)Oc1cccc(C(=O)N[C@@H](Cc2ccccc2)[C@H](O)CN2C[C@H]3CCCC[C@H]3C[C@H]2C(=O)NC(C)(C)C)c1C (relative stereo) [Example 82, [3S-(3R*, 4aR*, 8aR*, 2′S*, 3′R*)]-2-[2′-Hydroxy-3′-phenylmethyl-4′-aza-5′-oxo-5′-(2″-methyl-3″-(acetyl)hydroxyphenyl)pentyl]decahydroisoquinoline-3-N-t-butyl carboxamide]
- IC50 (HIV-1 protease; [3]): 325 nM

SMILES: Cc1c(N)cc(N)cc1C(=O)N[C@H](CSc1ccc2ccccc2c1)[C@H](O)Cc1ccccc1C(=O)NC(C)(C)C (relative stereo) [Example 53, [2′R-(2′R*,3′S*)]-N-t-Butyl-2-[2′-hydroxy-3′-naphth-2-ylthiomethyl-4′-aza-5′-oxo-5′-(2″-methyl-3″,5″-diaminophenyl)pentyl] benzamide]
- Fluorescence Assay IC50 (HIV-1 protease; [6]): 55 ng/mL

SMILES: Cc1ccc(O)cc1C(=O)N[C@H](CSc1ccc2ccccc2c1)[C@H](O)Cc1ccccc1C(=O)NC(C)(C)C (relative stereo) [Example 72, [2′R-(2′R*,3′S*)]-N-t-Butyl-2-[2′-hydroxy-3′-naphth-2-ylthiomethyl-4′-aza-5′-oxo-5′-(2″-methyl-5″-hydroxyphenyl)pentyl] benzamide]
- Fluorescence Assay IC50 (HIV-1 protease; [6]): 630 ng/mL

SMILES: CC(C)(C)NC(=O)[C@@H]1C[C@@H]2CCCC[C@@H]2CN1C[C@@H](O)[C@H](Cc1ccccc1)NC(=O)c1ccsc1 (relative stereo) [Example 87, [3S-(3R*, 4aR*, 8aR*, 2′S*, 3′R*)]-2-[2′-Hydroxy-3′-phenylmethyl-4′-aza-5′-oxo-5′-(thieno-3″-yl)pentyl]-decahydroisoquinoline-3-N-t-butyl carboxamide]
- Pandex IC50 (given as % at concentration) (HIV-1 protease; at 1,000 ng/ml): 25%

SMILES: CC(C)(C)NC(=O)C1CC2CCCCC2CN1CC(O)C(Cc1ccccc1)NC(=O)c1cccc2c1CCCN2 (stereo not drawn) [Example 37, [3S-(3R*,4aR*,8aR*,2′S*,3′S*)]-2-[2′-Hydroxy-3′-phenylmethyl-4′-aza-5′-oxo-5′-[(1″,2″,3″,4″-tetrahydroquinolin-5″-yl)]pentyl] decahydroisoquinoline-3-N-y-butylcarboxamide]
- IC50 (HIV-1 protease; [2]): 49 nM
- IC50 (HIV-1 protease; [3]): 58.8 nM

SMILES: Cc1ccc(N)cc1C(=O)N[C@H](CSc1ccc2ccccc2c1)[C@H](O)Cc1ccccc1C(=O)NC(C)(C)C (relative stereo) [Example 47, [2′R-(2′R*,3′S*)]-N-t-Butyl-2-[2′-hydroxy-3′-naphth-2-ylthiomethyl-4′-aza-5′-oxo-5′-(2″-methyl-5″-aminophenyl)pentyl] benzamide]
- Fluorescence Assay IC50 (HIV-1 protease; [6]): 91 ng/mL

SMILES: Cc1ccc(CO)cc1C(=O)N[C@@H](Cc1ccccc1)[C@H](O)Cc1ccccc1C(=O)NC(C)(C)C (relative stereo) [Example 41, [2′R-(2′R*,3′S*)]-N-t-Butyl-2-[2′-hydroxy-3′-phenylmethyl-4′-aza-5′-oxo-5′-(2″methyl-5″-hydroxymethylphenyl)pentyl] benzamide]
- Fluorescence Assay IC50 (HIV-1 protease; [6]): 6 ng/mL

SMILES: CC(C)(C)NC(=O)c1ccccc1C[C@@H](O)[C@H](CSc1ccc2ccccc2c1)NC(=O)c1cccc2c1CCCN2 (relative stereo) [Example 64, [2′R-(2′R*,3′S*)]-N-t-Butyl-2-[2′-hydroxy-3′-naphth-2-ylthiomethyl-4′-aza-5′-oxo-5′-(1″,2″,3″,4″-tetrahydroquinolin-5″-yl)pentyl] benzamide]
- IC50 (HIV-1 protease; [2]): 194 nM

SMILES: Cc1c(O)cccc1C(=O)N[C@@H](CSc1ccccc1)[C@H](O)CN1C[C@H]2CCCC[C@H]2C[C@H]1C(=O)NC(C)(C)C (relative stereo) [Example 75, [3S-(3R*, 4aR*, 8aR*, 2′S*, 3′S*)]-2-[2′-Hydroxy-3′-phenylthiomethyl-4′-aza-5′-oxo-5′-(2″-methyl-3″-hydroxyphenyl)pentyl]-decahydroisoquinoline-3-N-t-butyl carboxamide methanesulfonic acid salt]
- IC50 [1, 4]: 14.5 nM
- IC90 [1, 5]: 56.1 nM

SMILES: CNc1cccc(C(=O)N[C@H](CSc2ccc3ccccc3c2)[C@H](O)Cc2ccccc2C(=O)NC(C)(C)C)c1C (relative stereo) [Example 43, [2′R-(2′R*,3′S*)]-N-t-Butyl-2-[2′-hydroxy-3′-naphth-2-ylthiomethyl-4′-aza-5′-oxo-5′-(2″-methyl-3″N(methyl)aminophenyl)pentyl] benzamide]
- Fluorescence Assay IC50 (HIV-1 protease; [6]): 540 ng/mL

SMILES: Cc1c(O)cccc1C(=O)N[C@H](CSc1ccc2ccccc2c1)[C@H](O)Cc1ccccc1C(=O)NC(C)(C)C (relative stereo) [Example 46, [2′R-(2′R*,3′S*)]-N-t-Butyl-2-[2′-hydroxy-3′-naphth-2-ylthiomethyl-4′-aza-5′-oxo-5′-(2″-methyl-3″-hydroxyphenyl)pentyl] benzamide]
- Fluorescence Assay IC50 (HIV-1 protease; [6]): 63 ng/mL

SMILES: Cc1c(N)cc(N)cc1C(=O)NC(Cc1ccccc1)C(O)CN1CC2CCCCC2CC1C(=O)NC(C)(C)C (stereo not drawn) [Example 9, [3S-(3R*,4aR*,8aR*,2′S*,3′R*)]-2-[2′-Hydroxy-3′-phenylmethyl-4′-aza-5′-oxo-5′-(2″-methyl-3″,5″-diaminophenyl)pentyl] decahydroisoquinoline-3N-t-butylcarboxamide]
- IC50 (HIV-1 protease; [2]): 30.9 nM
- IC50 (HIV-1 protease; [3]): 95.9 nM
